Legend:
[1] = tested on: donor cells (I-A^b+ or GFP+) in recipient DLN; assay: Donor migratory cells screened in the recipient DLN by flow cytometry; type: in vivo, mice (Mus musculus)
[2] = tested on: cutaneous allograft (B6 donor skin in BALB/c recipients); assay: Murine model of cutaneous allograft, graft immersion-treatment; type: in vivo, mice (Mus musculus)
From the text: A method for treating grafts, including allografts, was developed by the inventors of the present invention. Thus, the method treats the grafts (that may be full organs) instead of recipient that will receive the graft, using as tool a classic murine model of skin transplantation and well established. Such method, to the light of the inventors, may be considered as new and inventive. The said model consists of a complete incompatibility of MHC molecules and was described by BILLINGHAM & MEDAWAR (1951).
BALB/c recipients, which express the MHC II I-A^d molecule, are anaesthetized and the dorsal stem hairs are removed. In the waxed area, 1 cm^2 of the skin was removed in each recipient mouse and the donor tail skin was sutured in the exposed area. The animals are maintained in individual cages and daily monitored. The graft rejection is confirmed by observing the cyanosis, erythema, erosion and cutaneous graft loss.
This model consists of a complete incompatibility of MHC molecules and was described by BILLINGHAM & MEDAWAR (1951). In this model, the donor mouse B6, which expresses the MHC II I-A^b molecule, is sacrificed. […] After this period, the grafts were sutured in the BALB/c recipients' back, who express the MHC II I-A^d molecule, and the rejection clinical progression is daily monitored.
After that, the grafts were sutured in the BALB/c (I-Ad) animals' back. The animals were daily monitored. ***, p<0.0001. n=22-24 mice per group. The results achieved putting the seven independent experiments together.
After this, these grafts were sutured in BALB/c recipients WT and their rejection were daily monitored.
After this, the grafts were sutured in the BALB/c (I-Ad) animals' back. The animals were daily monitored. *, p<0.05. n=4 mice per group.

IL-10 = IL-10 production by DCs (real time PCR and CBA); type: cell-based, mice (Mus musculus)
MARCH-I = MARCH-I mRNA in DCs by real time PCR; type: cell-based, mice (Mus musculus)
Description: The supernatants were collected and used for analyzing cytokine. The cells were further treated with 20 ng/ml of Rapamycin (Cell Signaling), 1 μg/ml of Cyclosporine A (Roche) or 20 ng/ml of IL-10 recombinant murine (R&D System) for 24 h and the total RNA was removed.
The total RNA was isolated from the DCs treated using the kit RNAeasy (Qiagen), according to the manufacturer instructions. The total purified RNA concentration was determined with the kit Qubit® RNA Assay Kit (Invitrogen), read in the Qubit® Fluorometer (Invitrogen). 50 ng of the RNA had reverse transcriptase with 100 U of Sensiscript (Qiagen). DNA concentrations were determined with the kit Qubit® dsDNA HS Assay (Invitrogen), read in the Qubit® Fluorometer (Invitrogen). In a final volume of 10 μL, 8 ng of cDNA were applied using some assays Taqman® Gene Expression (Applied Biosystems): IL10 (Mm00439614_m1), March1 (Mm00613524_m1) and β-actin (4352933E), according to the manufacturer recommendations.
The quantitative real time PCR was performed in the instrument StepOne™ Real-Time PCR System (Applied Biosystems). The relative levels of mRNA were calculated according to the comparative method of Ct, described by […] & LIVAK (2008). The β-actin constituent gene was used as setter. Non-treated DCs served as reference for OVA or Hsp70-treated DCs.
After that, IL-10 mRNA levels were analyzed by Real-time PCR. The β-actin was used as a setter. The IL-10 concentration was measured in the cultures supernatant by flow cytometry. […] (C) As in A, however the MARCH-I mRNA levels were analyzed by Real-time PCR. […] DCs IL-10 KO were also treated with Recombinant IL-10. All treatments were performed for 24 h and MARCH-I mRNA levels were analyzed by Real-time PCR. […] After this period, grafts were sutured in the BALB/c animals' back and the acceptance was daily monitored. Graphs expressed on average ±SEM. *, p<0.05; **, p<0.01; ***, […]. n=3-5 mice per group. Representative results of 3 independent experiments.
After this period, the MARCH-I expression increase was analyzed by Real-time PCR.

Substance: Hsp70: recombinant Mycobacterium tuberculosis Hsp70 (DnaK) produced in Escherichia coli BL21, LPS removed
- MHC II levels in DCs CD103+ migrating from the graft to the recipient DLN (FIG. 9 B) ([1]; 24 h or 96 h after transplantation): significant reduction of MHC II levels
- CD80 and CD86 levels of donor DCs (FIG. 6 C) ([1]; 24 h or 96 h after transplantation, vs OVA): reduced levels of CD80 and CD86
- CCR7 expression in migratory donor DCs ([1]; 24 hours after transplantation, vs OVA): upper levels of CCR7
- CCR7 expression in migratory donor DCs ([1]; four days after transplantation, vs OVA): did not differ
- MHC II expression in donors DCs in recipient DLN (FIG. 6 A, B) ([1]; graft treated by immersion, vs OVA): MHC II expression reduction
- donor cells (I-A^b+ or GFP+) in the recipient DLN ([1]; one and four days after transplantation, vs OVA): not noted any difference
- graft acceptance after immersion with Hsp70 or peptides (FIG. 17) ([2]; 60 μg/ml Hsp70 or 15 μg/ml peptide, 60 minutes at 4° C., compared to OVA peptide and peptide 5): inhibited the acute rejection
- graft survival compared with grafts treated with OVA (FIG. 1) ([2]; 60 μg/ml, 60 minutes at 4° C.): greater survival
- graft protection with grafts from donors IL-10 KO (FIG. 11 E) ([2]; IL-10 KO grafts, 60 μg/ml, 60 minutes): cancelled the protection
- Survival average ([2]; graft immersed in 60 μg/mL for 60 minutes, seven independent experiments): 20.0 days
- lengthening of graft survival with TLR2 KO grafts (FIG. 12 D) ([2]; mouse, in vivo): dependent on the TLR2 expression in the graft
- survival of WT grafts in WT or TLR2 KO recipients (FIG. 12 E) ([2]; mouse, in vivo): very similar survival
- IL-10 production, mRNA and protein level (FIG. 11 A) (IL-10; DCs isolated from mice lymph nodes, 24 h): induce the IL-10 production
- IL-10 mRNA and protein in DCs TLR2 KO (FIG. 12 A, B) (IL-10; TLR2 KO compared with DCs WT): significant reduction of the mRNA expression
- MARCH-I mRNA levels in DCs IL-10 KO (FIG. 11 D) (MARCH-I; DCs from IL-10 knockout animals, 24 h, compared with DCs WT): did not present an increase
- increase in the MARCH-I mRNA (FIG. 11 C) (MARCH-I; DCs isolated from LNs, 24 h): 20 times
- MARCH-I induction on DCs regarding the basal medium (FIG. 24) (MARCH-I; lymph node DCs, 24 hours, Hsp70 30 μg/mL, Rapamycin 20 ng/ml, Cyclosporine A 1 μg/ml, IL-10 20 ng/ml): only treatment able to induce MARCH-I
